The source of these data is patent US20220274979A1 (Bayer Pharma Aktiengesellschaft, priority 2018, published 2022).

What is called IC50 is the point on the concentration scale where inhibition reaches its midpoint. A lower IC50 goes with higher potency.

For the assay, the target named is T1, hSOS1 (hSOS1-mediated nucleotide exchange of hK-RasG12C) (Homo sapiens, UniProt Q07889).
T1 construct: hSOS1 (amino acid 564-1049); made in house; host or cells: E. coli BL21 (DE3)
T1 sequence (Q07889 with tags, fused parts or gaps): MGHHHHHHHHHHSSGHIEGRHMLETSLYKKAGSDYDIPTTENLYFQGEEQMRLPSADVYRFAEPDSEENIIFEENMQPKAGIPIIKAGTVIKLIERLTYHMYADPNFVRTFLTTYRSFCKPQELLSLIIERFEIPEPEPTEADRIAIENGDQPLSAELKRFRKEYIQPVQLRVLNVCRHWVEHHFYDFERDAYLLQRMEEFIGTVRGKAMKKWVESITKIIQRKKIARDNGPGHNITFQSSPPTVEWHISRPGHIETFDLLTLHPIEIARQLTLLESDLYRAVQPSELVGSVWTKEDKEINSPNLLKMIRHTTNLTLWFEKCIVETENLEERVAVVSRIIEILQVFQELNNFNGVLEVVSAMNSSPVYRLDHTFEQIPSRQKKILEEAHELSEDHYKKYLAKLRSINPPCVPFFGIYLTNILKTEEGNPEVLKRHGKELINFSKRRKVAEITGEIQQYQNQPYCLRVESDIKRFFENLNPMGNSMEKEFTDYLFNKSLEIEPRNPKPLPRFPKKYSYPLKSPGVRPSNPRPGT
As to the kind of experiment: Biochemical Assay 2: hK-RasG12C activation assay by hSOS1 at high GTP concentration (HTRF nucleotide exchange). Particulars: high GTP (50 μM GTP). Background: In TR-FRET formats the signal depends on donor and acceptor labels being close together.
For `Cc1nc(NC(C)c2ccc(-c3ccccc3CN(C)C)s2)c2cc(N3CC(NC(=O)CCCn4c(-c5ccccn5)nc(C)c4C)C3)ncc2n1` (stereo not drawn) [Example 87, N-[1-(4-{[1-(5-{2-[(dimethylamino)methyl]phenyl}thiophen-2-yl)ethyl]amino}-2-methylpyrido[3,4-d]pyrimidin-6-yl)azetidin-3-yl]-4-[4,5-dimethyl-2-(pyridin-2-yl)-1H-imidazol-1-yl]butanamide], the IC50 turned out to be 240 nM.
For `Cc1nc(NC(C)c2ccc(-c3ccccc3CN(C)C)s2)c2cc(N3CC(NC(=O)c4ccccc4)C3)ncc2n1` (stereo not drawn) [Example 88, N-[1-(4-{[1-(5-{2-[(dimethylamino)methyl]phenyl}thiophen-2-yl)ethyl]amino}-2-methylpyrido[3,4-d]pyrimidin-6-yl)azetidin-3-yl]benzamide], the IC50 was 161 nM.
In the case of `Cc1nc(NC(C)c2ccc(-c3ccccc3CN(C)C)s2)c2cc(N3CC(NC(=O)Cc4ccccc4)C3)ncc2n1` (stereo not drawn) [Example 89, N-[1-(4-{[1-(5-{2-[(dimethylamino)methyl]phenyl}thiophen-2-yl)ethyl]amino}-2-methylpyrido[3,4-d]pyrimidin-6-yl)azetidin-3-yl]-2-phenylacetamide] it was 111 nM; in that of `Cc1nc(NC(C)c2ccc(-c3ccccc3CN(C)C)s2)c2cc(N3CC(NC(=O)C4CCCCC4)C3)ncc2n1` (stereo not drawn) [Example 90, N-[1-(4-{[1-(5-{2-[(dimethylamino)methyl]phenyl}thiophen-2-yl)ethyl]amino}-2-methylpyrido[3,4-d]pyrimidin-6-yl)azetidin-3-yl]cyclohexanecarboxamide], 154 nM; in that of `Cc1nc(NC(C)c2ccc(-c3ccccc3CN(C)C)s2)c2cc(N3CC(NC(=O)CC4CC4)C3)ncc2n1` (stereo not drawn) [Example 91, 2-cyclopropyl-N-[1-(4-{[1-(5-{2-[(dimethylamino)methyl]phenyl}thiophen-2-yl)ethyl]amino}-2-methylpyrido[3,4-d]pyrimidin-6-yl)azetidin-3-yl]acetamide], 137 nM.
To `Cc1nc(NC(C)c2ccc(-c3ccccc3CN(C)C)s2)c2cc(N3CC(N)C3)ncc2n1` (stereo not drawn) [Example 93, 6-(3-aminoazetidin-1-yl)-N-[1-(5-{2-[(dimethylamino)methyl]phenyl}thiophen-2-yl)ethyl]-2-methylpyrido[3,4-d]pyrimidin-4-amine] belongs 69.2 nM; to `Cc1nc(NC(C)c2ccc(-c3ccccc3CN(C)C)s2)c2cc(N3CC(NS(=O)(=O)c4ccccc4)C3)ncc2n1` (stereo not drawn) [Example 94, N-[1-(4-{[1-(5-{2-[(dimethylamino)methyl]phenyl}thiophen-2-yl)ethyl]amino}-2-methylpyrido[3,4-d]pyrimidin-6-yl)azetidin-3-yl]benzenesulfonamide], 163 nM; to `Cc1nc(NC(C)c2ccc(-c3ccccc3CN(C)C)s2)c2cc(N3CC(NS(=O)(=O)Cc4ccccc4)C3)ncc2n1` (stereo not drawn) [Example 95, N-[1-(4-{[1-(5-{2-[(dimethylamino)methyl]phenyl}thiophen-2-yl)ethyl]amino}-2-methylpyrido[3,4-d]pyrimidin-6-yl)azetidin-3-yl]-1-phenylmethanesulfonamide], 240 nM.
For the molecule `Cc1nc(NC(C)c2ccc(-c3ccccc3CN(C)C)s2)c2cc(N3CC(NC(=O)Nc4ccccc4)C3)ncc2n1` (stereo not drawn) [Example 96, 1-[1-(4-{[1-(5-{2-[(dimethylamino)methyl]phenyl}thiophen-2-yl)ethyl]amino}-2-methylpyrido[3,4-d]pyrimidin-6-yl)azetidin-3-yl]-3-phenylurea], half-maximal inhibition (IC50) was put at 226 nM.
